The NIST ThermoML archive (doi:10.1021/acs.jced.5b00613)

Assay: xn = mol fraction of the nth substance listed
Conditions: Liquid, Vibrating tube method

CCCCCCCCCCCCCCCC [hexadecane] + CCCCCC
mass density [kg/m3]
Conditions	100 kPa	1000 kPa	5000 kPa	10000 kPa	20000 kPa	30000 kPa	40000 kPa	50000 kPa	60000 kPa
298.15 K, x2 = 0.1985	759.7	760.3	763	766.3	772.3	777.9	783.2	788.1	–
298.15 K, x2 = 0.4136	744.4	745.1	748	751.4	757.8	763.7	769.2	774.4	779.5
298.15 K, x2 = 0.5007	736.7	737.5	740.4	744	750.4	756.5	762.2	767.5	772.6
298.15 K, x2 = 0.5966	726.9	727.5	730.6	734.3	741.1	747.4	753.2	758.6	763.9
298.15 K, x2 = 0.7928	700.2	700.8	704.3	708.5	715.9	722.7	729	734.8	740.4
323.15 K, x2 = 0.1985	742.3	743.2	746.2	749.9	756.7	763	768.7	774.2	779.4
323.15 K, x2 = 0.4136	726.2	727.1	730.4	734.4	741.6	748.3	754.3	760.1	765.4
323.15 K, x2 = 0.5007	717.7	719.1	722.6	726.7	734.1	741	747.2	753	758.5
323.15 K, x2 = 0.5966	707.8	708.9	712.4	716.7	724.4	731.5	737.9	744	749.7
323.15 K, x2 = 0.7928	679.1	680.6	684.7	689.6	698.3	706.2	713.2	719.7	725.7
348.15 K, x2 = 0.1985	724.4	725.2	728.7	732.9	740.6	747.6	754	760	765.6
348.15 K, x2 = 0.4136	708	709	712.8	717.3	725.6	733	739.7	746	751.9
348.15 K, x2 = 0.5007	698.3	700.1	704	708.6	717.2	724.9	731.8	738.2	744.2
348.15 K, x2 = 0.5966	687.2	689.3	693.5	698.5	707.5	715.4	722.6	729.3	735.5
348.15 K, x2 = 0.7928	658.2	659.5	664.5	670.2	680.3	689.2	697.1	704.3	711
373.15 K, x2 = 0.1985	706.6	707.5	711.7	716.4	725.2	733	740.1	746.6	752.7
373.15 K, x2 = 0.4136	689.1	690.2	694.8	699.9	709.4	717.7	725.3	732.3	738.7
373.15 K, x2 = 0.5007	–	681	685.8	691.2	701	709.7	717.5	724.6	731.2
373.15 K, x2 = 0.5966	–	669.9	674.9	680.7	691	700	708	715.3	722.1
373.15 K, x2 = 0.7928	–	638.3	644.3	651	662.7	672.8	681.7	689.7	697
423.15 K, x2 = 0.1985	668.8	670.8	676.3	682.5	693.7	703.3	711.9	719.7	726.8
423.15 K, x2 = 0.4136	–	651.3	657.6	664.5	676.6	687.1	696.3	704.6	712.1
423.15 K, x2 = 0.5007	–	640.9	647.6	654.9	667.6	678.5	688	696.5	704.2
423.15 K, x2 = 0.5966	–	628.2	635.3	643.3	656.9	668.3	678.2	687.1	695.2
423.15 K, x2 = 0.7928	–	592.3	601.2	610.7	626.4	639.2	650.3	660	668.8
463.15 K, x2 = 0.1985	–	640.3	647.5	655.5	669.1	680.6	690.5	699.3	707.4
463.15 K, x2 = 0.4136	–	618.2	626.5	635.6	650.7	663.2	673.9	683.4	692
463.15 K, x2 = 0.5007	–	606.1	615.2	624.9	640.9	654	665.1	674.9	683.6
463.15 K, x2 = 0.5966	–	593	602.9	613.2	630	643.6	655.2	665.3	674.4
463.15 K, x2 = 0.7928	–	–	563.7	577	597.1	612.8	625.8	637	647
